Measured values reported in patent US20170304388A1, “NEW INDICATION OF CARDIOVASCULAR DRUGS FOR PREPARATION OF CANCER INHIBITION PHARMACEUTICAL COMPOSITION” (LAUNX BIOMEDICAL CO., LTD., priority 2014, published 2017).
Where a name gives a salt, the structure may show the parent alone.

tested on: cancer cell lines; test: Growth inhibitory effects on the panel of cancer cell lines; assay type: cell-based; details: drug 10 μM, 72 hours, WST-1

Row | Structure (SMILES) | inhibition effect on different cancer cell lines (in words)
1 | C[C@@H]1C(=O)O[C@H]2C[C@@]34[C@H]5C[C@@H](C(C)(C)C)[C@]36[C@@H](OC(=O)[C@@H]6O)O[C@@]4(C(=O)O5)[C@]21O [Ginkgolide A] | significant inhibition effect
2 | NCCc1c[nH]cn1.O=P(O)(O)O [Histamine Phosphate] | significant inhibition effect
3 | NS(=O)(=O)c1cc2c(cc1Cl)NCNS2(=O)=O [Hydrochlorothiazide] | significant inhibition effect
4 | CCOC(=O)[C@H](CCc1ccccc1)N[C@@H](C)C(=O)N1C(=O)N(C)C[C@H]1C(=O)O [Imidapril (Tanatril) HCl, Imidapril HCl] | significant inhibition effect
5 | CCCCC1=NC2(CCCC2)C(=O)N1Cc1ccc(-c2ccccc2-c2nnn[nH]2)cc1 [Irbesartan (Avapro), Irbesartan] | significant inhibition effect
6 | C[N+](C)(C)C[C@H](O)CC(=O)[O-] [L-carnitine (Levocarnitine), L-carnitine] | significant inhibition effect
7 | CCOC(=O)C1=C(C)NC(C)=C(C(=O)OCC)C1c1ccccc1/C=C/C(=O)OC(C)(C)C [Lacidipine (Lacipil, Motens), Lacidipine] | significant inhibition effect
8 | Nc1cccc2c1CN(C1CCC(=O)NC1=O)C2=O (stereo not shown) [Lenalidomide] | significant inhibition effect
9 | CC(Oc1c(Cl)cccc1Cl)C1=NCCN1 (stereo not shown) [Lofexidine HCl] | significant inhibition effect
10 | COc1ccc(CN2CCN(C(c3ccc(F)cc3)c3ccc(F)cc3)CC2)c(OC)c1OC [Lomerizine HCl] | significant inhibition effect
11 | COc1ccc(OC)c(C(O)C(C)N)c1 (stereo not shown) [Methoxamine HCl] | significant inhibition effect
12 | CN1C(CCl)Nc2cc(Cl)c(S(N)(=O)=O)cc2S1(=O)=O (stereo not shown) [Methyclothiazide] | significant inhibition effect
13 | Cc1cc2c(cc1S(N)(=O)=O)S(=O)(=O)CCC2 [Meticrane] | significant inhibition effect
14 | Cc1ccccc1N1C(=O)c2cc(S(N)(=O)=O)c(Cl)cc2NC1C (stereo not shown) [Metolazone (Zaroxolyn), Metolazone] | significant inhibition effect
15 | CC[C@H](C)C(=O)O[C@H]1CCC=C2C=C[C@H](C)[C@H](CC[C@@H]3C[C@@H](O)CC(=O)O3)[C@H]21 [Mevastatin] | significant inhibition effect
16 | Cc1cccc(C)c1OCC(C)N (stereo not shown) [Mexiletine HCl] | significant inhibition effect
17 | O=C(O)[C@H](CC(=O)N1C[C@H]2CCCC[C@H]2C1)Cc1ccccc1 [Mitiglinide calcium] | significant inhibition effect
18 | O=C1c2c(O)ccc(O)c2C(=O)c2c(NCCNCCO)ccc(NCCNCCO)c21 [Mitoxantrone Hydrochloride] | significant inhibition effect
19 | N=C(N)c1ccc2cc(OC(=O)c3ccc(N=C(N)N)cc3)ccc2c1 [Nafamostat mesylate] | significant inhibition effect
20 | O=C(NCCO[N+](=O)[O-])c1cccnc1 [Nicorandil (Ikorel), Nicorandil] | significant inhibition effect
21 | CS(=O)(=O)Nc1ccc([N+](=O)[O-])cc1Oc1ccccc1 [Nimesulide] | significant inhibition effect
22 | CCCc1nc(C(C)(C)O)c(C(=O)OCc2oc(=O)oc2C)n1Cc1ccc(-c2ccccc2-c2nnn[nH]2)cc1 [Olmesartan medoxomil (Benicar), Olmesartan medoxomil] | significant inhibition effect
